Assay: Azithromycin dihydrate crystallinity in molten carrier mixtures with varying water, by PXRD
Assay type: physicochemical
Procedure: Another way to determine the activity of volatile species in crystalline drug at the processing conditions is by measuring the change in the crystalline state of the drug as a function of the amount of volatile species present in the molten mixture. A series of blends of the crystalline drug, the carrier, and varying amounts of volatile species are prepared and placed into sealed containers. The containers are then heated to the processing temperature used to form the multiparticulates and held at this temperature for a period of time, such as 90 minutes. During this time, a sample of the container's atmosphere, i.e., the container's “headspace,” can be taken and the partial pressure of volatile species in the headspace can be measured using standard techniques, such as by gas chromatography. The containers are then cooled and the concentration of the desired crystalline form of the drug in each sample can be determined using standard techniques, as described below. The concentration of the desired crystalline form of the drug in the sample is then plotted versus the amount of volatile species included in the blend or the concentration of volatile species present in the headspace. […] The amount of the desired crystalline form of the drug in the samples and in multiparticulates can be determined using Powder X-Ray Diffraction (PXRD) analysis. In an exemplary procedure, PXRD analysis may be performed on a Bruker AXS D8 Advance diffractometer. In this analysis, samples of about 500 mg are packed in Lucite sample cups and the sample surface smoothed using a glass microscope slide to provide a consistently smooth sample surface that is level with the top of the sample cup. Samples are spun in the φ plane at a rate of 30 rpm to minimize crystal orientation effects. The X-ray source (S/B KCuα, λ=1.54 Å) is operated at a voltage of 45 kV and a current of 40 mA. Data for each sample are collected over a period of about 20 to 60 minutes in continuous detector scan mode at a scan speed of about 1 to 15 seconds/step and a step size of 0.02°/step. Diffractograms are collected over the 2θ range of 4° to 30°. The crystallinity of the test sample is determined by comparison with two or more calibration standards consisting of physical mixtures of crystalline drug and carrier. Each physical mixture is blended together 15 minutes on a Turbula mixer. Using the instrument software, the area under the diffractogram curve is integrated over the 2θ range using a linear baseline. This integration range includes as many drug-specific peaks as possible while excluding carrier-related peaks. A linear calibration curve of percent crystalline drug versus the area under the diffractogram curve is generated from the calibration standards. The crystallinity of the test sample is then determined using these calibration results and the area under the curve for the test sample. Results are reported as a mean percent drug crystallinity by crystal mass. The amount of water required to maintain the dihydrate form of azithromycin while forming multiparticulates by a melt-congeal process was determined as follows. The composition of the multiparticulates was 50 wt % azithromycin dihydrate, 46 wt % of the matrix excipient COMPRITOL 888 ATO (a mixture of 13 to 21 wt % glyceryl mono-behenate, 40 to 60 wt % glyceryl di-behenate, and about 35 wt % glyceryl tri-behenate from Gattefossé Corporation of Paramus, N.J.), and 4 wt % of the poloxamer dissolution enhancer PLURONIC F127 (polyoxyethylene-polyoxypropylene block copolymer, from BASF Corporation of Mt. Olive, N.J.). Mixtures of these materials containing varying amounts of water were prepared and analyzed by PXRD. To form each mixture, 100 g azithromycin dihydrate, 92 g of the COMPRITOL 888 ATO, and 8 g of the PLURONIC F127 were added to a water-jacketed stainless steel sealed vessel. Various amounts of water were added to each mixture to obtain varying water concentrations. […]

Compound: CC[C@H]1OC(=O)[C@H](C)[C@@H](O[C@H]2C[C@@](C)(OC)[C@@H](O)[C@H](C)O2)[C@H](C)[C@@H](O[C@@H]2O[C@H](C)C[C@H](N(C)C)[C@H]2O)[C@](C)(O)C[C@@H](C)CN(C)[C@H](C)[C@@H](O)[C@]1(C)O [Azithromycin Dihydrate, 9a-aza-9a-methyl-9-deoxo-9a-homoerythromycin A]
- Azithromycin Dihydrate Crystallinity (Water in melt sample 0.35 wt %, same mixture, 90 min at 90° C.): 57 wt %
- Azithromycin Dihydrate Crystallinity (Water in melt sample 0.45 wt %, same mixture, 90 min at 90° C.): 68 wt %
- Azithromycin Dihydrate Crystallinity (Water in melt sample 1.88 wt %, same mixture, 90 min at 90° C.): 91 wt %
- Azithromycin Dihydrate Crystallinity (Water in melt sample 2.22 wt %, same mixture, 90 min at 90° C.): 93 wt %
- Azithromycin Dihydrate Crystallinity (Water in melt sample 3.08 wt %, 50/46/4 azithromycin dihydrate/COMPRITOL 888 ATO/PLURONIC F127, stirred 90 min at 90° C., sealed vessel): 95 wt %
- water needed in the mixtures to maintain high levels of azithromycin dihydrate crystallinity in the melt (melt at 90° C., COMPRITOL 888 ATO/PLURONIC F127 carrier): at least 2.2 wt %
